This note sets out measurements from US10293014B2, “Immune stimulating composition comprising an extract of Aronia sp. in combination with selenium and/or zinc” (Ursapharm Arzneimittel GmbH, priority 2009, dated 2019).

This test concerns macrophages of the mouse leukaemic monocyte macrophage cell line RAW 264.7. Kind of test: Chemiluminescence assay of macrophage activity (lucigenine, zymosan). It is filed as cell-based. The settings on record: selenium alone, RAW 264.7, FIG. 3. As to the method:
Cells: Cell line (RAW 264.7, murine macrophages) was purchased from the America Type Culture Collection and cultivated as recommended.
Chemiluminescence Assay: Lucigenine (Sigma Chemicals Co.) was dissolved in Hank's Balanced Salt Solution (HBSS; Gibco Co.) at a concentration of 2×10^−3 M. This stock solution was further diluted in HBSS prior to use. 1 ml cells (5×10^6 cells/ml) were incubated with 0.1 ml solution of Aronia extract and Aronia extract together with sodium selenite (dosis kinetics for each component and the combinations as documented in the figures). All these constituents were kept in an incubator (37° C., 5% CO2) for 30 min, then centrifuged at 1200 U/min for 5 min and resuspended in minimal essential medium (MEM, Gibco Co.).
The reaction mixture consisted of a suspension (0.25 ml) at a concentration of 5×10^6 PMNL (polymorphonuclear leucocytes)/ml respectively monocytes/macrophages, 50 μl zymosan, and 0.45 ml medium containing 2×10^−6 M lucigenine. The reaction mixture was kept at 37° C. before chemoluminescence measurements were performed with a Luminometer (Luminoskan 1251, Labsystems) according to manufacturer's instructions (User's Manual 1995).

As to `O=[Se]([O-])[O-].[Na+].[Na+]` [selenium, sodium selenite], the “concentrations that decrease macrophage activity” value was > 8 µg/mL.
